Test results taken from paper PMC7094737 (Journal of Molecular Biology, 2008).
Changes are numbered by the printed parent chain.

What was measured:
[1] = molecular target: T1, MDO1 (Homo sapiens, UniProt Q9BQ69); experiment: ADPR-1″P hydrolysis; format: biochemical; conditions: by MDO1; Fig. 2, TLC
T1 sequence (Q9BQ69 83-325): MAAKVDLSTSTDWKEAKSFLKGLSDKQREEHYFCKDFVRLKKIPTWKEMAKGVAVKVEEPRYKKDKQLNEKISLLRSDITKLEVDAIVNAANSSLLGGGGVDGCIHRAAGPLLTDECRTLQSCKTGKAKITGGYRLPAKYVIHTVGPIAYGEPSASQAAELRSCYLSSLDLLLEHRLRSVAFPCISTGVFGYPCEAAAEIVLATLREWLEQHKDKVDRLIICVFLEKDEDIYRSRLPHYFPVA

[2] = molecular target: T2, MDO2 (Homo sapiens, UniProt A1Z1Q3); experiment: ADPR-1″P hydrolysis; format: biochemical; conditions: by MDO2; Fig. 2, TLC
T2 sequence (A1Z1Q3 1-243): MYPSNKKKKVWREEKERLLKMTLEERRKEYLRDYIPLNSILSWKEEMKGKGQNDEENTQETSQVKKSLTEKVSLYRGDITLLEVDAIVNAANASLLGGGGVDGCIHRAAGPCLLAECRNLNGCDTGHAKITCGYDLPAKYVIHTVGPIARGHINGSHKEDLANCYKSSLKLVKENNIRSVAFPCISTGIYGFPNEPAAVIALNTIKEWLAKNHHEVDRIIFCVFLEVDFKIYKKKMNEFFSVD

[3] = molecular target: T3, GDAP2 (Homo sapiens, UniProt Q9NXN4); experiment: ADPR-1″P hydrolysis; format: biochemical; conditions: by GDAP2; Fig. 2, TLC
T3 sequence (Q9NXN4 1-231 isoform Q9NXN4-2): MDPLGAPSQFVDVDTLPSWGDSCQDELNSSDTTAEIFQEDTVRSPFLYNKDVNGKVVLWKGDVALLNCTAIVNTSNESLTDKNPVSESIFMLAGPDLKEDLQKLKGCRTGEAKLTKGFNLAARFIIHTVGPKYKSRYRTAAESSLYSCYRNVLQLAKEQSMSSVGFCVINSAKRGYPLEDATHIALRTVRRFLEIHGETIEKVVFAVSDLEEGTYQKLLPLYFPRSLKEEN

[4] = molecular target: T4, SFV macro (nsP3) (Semliki forest virus, UniProt P08411); experiment: ADPR-1″P hydrolysis; format: biochemical; conditions: by SFV nsP3 (167-aa and 328-aa similar); Fig. 2, TLC
T4 sequence (P08411 1337-1503 limits assumed): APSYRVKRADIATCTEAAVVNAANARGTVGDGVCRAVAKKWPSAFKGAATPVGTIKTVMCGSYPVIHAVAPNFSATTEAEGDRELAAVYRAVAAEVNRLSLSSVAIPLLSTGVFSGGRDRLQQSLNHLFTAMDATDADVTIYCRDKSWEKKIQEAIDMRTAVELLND

[5] = tested on: macro domains; experiment: Filter binding with radioactive NAD+ alone
[6] = molecular target: T1, MDO1; format: binding; conditions: MDO1, 500 mM NaCl, data not shown
[7] = molecular target: T1, MDO1; experiment: Competition for poly; format: binding; conditions: data not shown
[8] = molecular target: T5, SFV macro (Semliki forest virus, UniProt P08411); experiment: Competition for poly; format: binding; conditions: data not shown
T5 sequence (P08411 1337-1495 limits assumed): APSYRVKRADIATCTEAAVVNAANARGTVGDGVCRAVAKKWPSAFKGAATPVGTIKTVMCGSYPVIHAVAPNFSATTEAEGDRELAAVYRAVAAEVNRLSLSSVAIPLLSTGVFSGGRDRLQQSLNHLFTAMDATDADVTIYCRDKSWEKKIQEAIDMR

[9] = molecular target: T6, HEV macro (Hepatitis E virus genotype 1, UniProt P29324); experiment: Competition for poly; format: binding; conditions: data not shown
T6 sequence (P29324 775-960): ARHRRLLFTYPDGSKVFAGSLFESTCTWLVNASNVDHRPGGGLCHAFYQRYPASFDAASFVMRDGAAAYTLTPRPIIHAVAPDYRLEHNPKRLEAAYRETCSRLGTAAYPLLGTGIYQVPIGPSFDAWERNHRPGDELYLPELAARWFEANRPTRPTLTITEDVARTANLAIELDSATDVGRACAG

[10] = molecular target: T2, MDO2; experiment: [32P]poly; format: binding; conditions: to MDO2; Fig. 3c
[11] = molecular target: T3, GDAP2; experiment: [32P]poly; format: binding; conditions: to GDAP2; Fig. 3c
[12] = molecular target: T1, MDO1; format: binding; conditions: to MDO1; Fig. 3b
[13] = molecular target: T2, MDO2; format: binding; conditions: to MDO2; Fig. 3b
[14] = molecular target: T3, GDAP2; format: binding; conditions: to GDAP2
[15] = molecular target: T7, Poa1p (Saccharomyces cerevisiae, UniProt P38218, S2A); format: binding; conditions: to Poa1p; Fig. 3b
T7 sequence (P38218 1-177 S2A): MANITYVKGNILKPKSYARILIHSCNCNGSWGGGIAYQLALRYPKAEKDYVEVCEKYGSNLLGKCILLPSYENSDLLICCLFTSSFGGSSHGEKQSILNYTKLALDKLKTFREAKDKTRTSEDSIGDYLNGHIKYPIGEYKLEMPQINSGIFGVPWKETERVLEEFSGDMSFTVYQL

[16] = molecular target: T4, SFV macro (nsP3); format: binding; conditions: to SFV macro; Fig. 3b
[17] = molecular target: T6, HEV macro; format: binding; conditions: to HEV macro; Fig. 3b
[18] = molecular target: T8, MDO1 G182Y + G270Y (Homo sapiens, UniProt Q9BQ69, G182Y/G270Y); format: binding; conditions: filter washed with 1 M NaCl, not shown
T8 sequence (Q9BQ69 83-325 G182Y/G270Y): T1 sequence (Q9BQ69 83-325) with G100Y, G188Y

[19] = tested on: macro proteins; format: biochemical
[20] = monomeric ADP-ribose 1500-fold excess
[21] = molar excess of poly(A) ∼ 400-fold

Compound: Nc1ncnc2c1ncn2[C@@H]1O[C@H](COP(=O)(O)OP(=O)(O)OC[C@H]2O[C@H](OP(=O)(O)O)[C@H](O)[C@@H]2O)[C@@H](O)[C@H]1O [ADPR-1″P, ADP-ribose-1″ phosphate]
- ADPR-1″P hydrolysis (in words) [1]: equally efficiently as yeast Poa1p
- ADPR-1″P hydrolysis (in words) [2]: equally efficiently as yeast Poa1p
- ADPR-1″P hydrolysis (in words) [3]: inactive
- ADPR-1″P hydrolysis (in words) [4]: only a minor activity

Compound: NC(=O)c1ccc[n+]([C@@H]2O[C@H](COP(=O)([O-])OP(=O)(O)OC[C@H]3O[C@@H](n4cnc5c(N)ncnc54)[C@H](O)[C@@H]3O)[C@@H](O)[C@H]2O)c1 [NAD ^+]
- radioactive signal on filter-bound macro domains [5]: no radioactive signal

Compound: ADP-ribose
- dissociation constant in high-salt buffer versus standard conditions [6]: approximately twofold
- competition for the binding of poly(ADP-ribose) [7, 20]: no competition
- competition for the binding of poly(ADP-ribose) [8, 20]: no competition
- competition for the binding of poly(ADP-ribose) [9, 20]: no competition

Compound: poly(A)
- poly(A) binding (in words) [10]: did not bind poly(A)
- poly(A) binding (in words) [11]: bound poly(A)
- competition for the binding of poly(ADP-ribose) [7, 21]: no competition
- competition for the binding of poly(ADP-ribose) [8, 21]: no competition
- competition for the binding of poly(ADP-ribose) [9, 21]: no competition

Compound: poly(ADP-ribose)
- poly(ADP-ribose) binding (in words) [12]: bound poly(ADP-ribose)
- poly(ADP-ribose) binding (in words) [13]: did not show effective binding
- poly(ADP-ribose) binding (in words) [14]: inefficient
- poly(ADP-ribose) binding (in words) [15]: did not show effective binding
- poly(ADP-ribose) binding (in words) [16]: bound poly(ADP-ribose) effectively
- poly(ADP-ribose) binding (in words) [17]: bound poly(ADP-ribose) effectively
- poly(ADP-ribose) binding after stringent wash [18]: did not have an effect on poly(ADP-ribose) binding
- poly(ADP-ribose) hydrolysis activity [19]: None of the macro proteins degraded poly(ADP-ribose)
